Tests used:
[1] = system: brain, spinal cord, and DRG of the NHPs; assay: NGS fold enrichment of synthetic library (passage 3) in NHPs, first cross-species screen; assay type: in vivo, cynomolgus macaques (Macaca fascicularis); conditions: synthetic library passage 3, intravenous, relative to wild-type AAV9
Method: (§1) After creation of the synthetic library with the sub-selected variants, the synthetic library was screened (passage 3) in two NHPs (2-4 years of age) and two strains of mice, BALB/c (n=3, 6-8 weeks of age) and C57Bl/6 mice (n=3, 6-8 weeks of age), in a first cross-species evolution screen. The animals were injected intravenously with the synthetic library. After a period in vivo, (e.g., 28-days) RNA was extracted from nervous tissue, e.g., brain, spinal cord, and DRG of the NHPs and the brains of mice. Following RNA recovery and RT-PCR amplification, a systematic NGS enrichment analysis was performed, and the peptides comprised within the variants were identified and the capsid enrichment ratio for each variant compared to the wild-type AAV9 control was calculated (fold enrichment relative to wild-type AAV9) (Table 9). […] All animals were dosed intravenously at […] across the screen.

brain [2] = assay: NGS fold enrichment of synthetic library (passage 3) in BALB/c mice, first cross-species screen; assay type: in vivo; conditions: synthetic library passage 3, intravenous, relative to wild-type AAV9
Method: as §1

brain [3] = assay: NGS fold enrichment of synthetic library (passage 3) in C57Bl/6 mice, first cross-species screen; assay type: in vivo; conditions: synthetic library passage 3, intravenous, relative to wild-type AAV9
Method: as §1

brain [4] = assay: Maturation of TTM-001 capsid, NGS enrichment in brain of CD-1 Outbred mice; assay type: in vivo; conditions: NGS fold-enrichment of TTM-001 matured AAV capsid variants in the brain of CD-1 Outbred mice; intravenous 1.0×10^12 VG/dose; 14 days in life; RNA; relative to non-matured TTM-001 control
Outline: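 Pooled matured TTM-001 or TTM-002 capsid libraries (loop IV region randomized by triple-codon or low-frequency point mutagenesis) dosed IV via tail vein at 1.0×10^12 VG/dose to three female CD-1 mice. Brain RNA taken after 14 days; RT-PCR and NGS gave fold enrichment versus parent TTM-001 or TTM-002 control.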

[5] = system: brains, heart, liver, muscle, and DRG of the NHPs; assay: Maturation of TTM-001 and TTM-002 capsids, NGS enrichment in NHP tissues; assay type: in vivo; conditions: NGS, relative to AAV9 control
Outline: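 Variants carry mutations within and flanking the loop IV peptide insert: positions 450–466 were triplet-randomized, while positions 449–466 received low-frequency point mutations. The combined pool went into two NHPs, and each peptide was scored by NGS enrichment ratio against AAV9.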

Sequence | Fold enrichment over TTM-001 (brain [4]) | also measured
GSGQNQQTVQSNLV | – | Fold enrichment over AAV9 in the brain of NHPs ([1]; RNA NGS, brain of NHPs): 1.103 fold; Fold enrichment over AAV9 in the spinal cord of NHPs ([1]; RNA NGS, spinal cord of NHPs): 2.350 fold; Fold enrichment over AAV9 in the brain of Mice (BALB/c) (brain [2]; RNA NGS, brain of BALB/c mice): 0.698 fold; Fold enrichment over AAV9 in the brain of Mice (C57Bl/6) (brain [3]; RNA NGS, brain of C57Bl/6 mice): 0.577 fold
GSGQNQGRAHPMQT | – | Fold enrichment over AAV9 in the brain of NHPs ([1]; RNA NGS, brain of NHPs): 1.007 fold; Fold enrichment over AAV9 in the spinal cord of NHPs ([1]; RNA NGS, spinal cord of NHPs): 2.364 fold; Fold enrichment over AAV9 in the brain of Mice (BALB/c) (brain [2]; RNA NGS, brain of BALB/c mice): 0.453 fold; Fold enrichment over AAV9 in the brain of Mice (C57Bl/6) (brain [3]; RNA NGS, brain of C57Bl/6 mice): 0.684 fold
GRGQHVSVANNQQT | – | Fold enrichment over AAV9 in the brain of NHPs ([1]; RNA from brain of NHPs, NGS): 1.152 fold; Fold enrichment over AAV9 in the spinal cord of NHPs ([1]; RNA from spinal cord of NHPs, NGS): 1.896 fold; Fold enrichment over AAV9 in the brain of Mice (BALB/c) (brain [2]; RNA from brain of BALB/c mice, NGS): 0.589 fold; Fold enrichment over AAV9 in the brain of Mice (C57Bl/6) (brain [3]; RNA from brain of C57Bl/6 mice, NGS): 1.032 fold
GSGQNQQHANLNQT | – | Fold enrichment over AAV9 in the brain of NHPs ([1]; RNA NGS, brain of NHPs): 1.410 fold; Fold enrichment over AAV9 in the spinal cord of NHPs ([1]; RNA NGS, spinal cord of NHPs): 0.094 fold; Fold enrichment over AAV9 in the brain of Mice (BALB/c) (brain [2]; RNA NGS, brain of BALB/c mice): 0.544 fold; Fold enrichment over AAV9 in the brain of Mice (C57Bl/6) (brain [3]; RNA NGS, brain of C57Bl/6 mice): 0.416 fold
KTINSPRSPHSKAQNQQT | 2.264 fold | Fold Enrichment relative to AAV9, DRG (NHP) ([5]; NHP DRG): 0.000 fold; Fold Enrichment relative to AAV9, Brain (NHP) ([5]; NHP brain): 0.000 fold; Fold Enrichment relative to AAV9, Heart (NHP) ([5]; NHP heart): 0.000 fold; Fold Enrichment relative to AAV9, Liver DNA (NHP) ([5]; NHP liver DNA): 1.554 fold; Fold Enrichment relative to AAV9, Liver RNA (NHP) ([5]; NHP liver RNA, TTM-001 and TTM-002 matured AAV capsid variants): 27.240 fold; Fold Enrichment relative to AAV9, Muscle (NHP) ([5]; NHP muscle): 0.000 fold
KTINGQRSPHVKAQNQQT | 2.596 fold | –
KTINGSGSPHSKAQIRLT | 3.279 fold | –
KTINGMSSPHRKAQNQQT | 2.352 fold | –
KTINGSGSPHSKRALQQT | 2.114 fold | –
KTINGRQSPHTKAQNQQT | 2.294 fold | –
KTINMRVSPHSKAQNQQT | 3.073 fold | –
KTINGSGSPHSKTIRQQT | 2.453 fold | –
KTINGSGSPHSKWVSQQT | 2.089 fold | –
KTINGSGSPHSKRIVQQT (KTINGSGSPHSKRLVQQT) | 2.151 fold | –
KTINGSRSPHYKAQNQQT (peptide inserted in AAV capsid) | 2.879 fold | –
KTINGSGSPHALFQNQQT | 2.261 fold | –
KTINGSGSPHSKLLRQQT | 2.981 fold | –
KTINGRASPHVKAQNQQT | 2.272 fold | –
KTINGSGSPHSKACPLQT | 2.285 fold | –
KTINGSGSPHSKSRWQQT | 3.698 fold | –
KTINGSGSPHSCAQNQQT | 2.030 fold | –
KTINGSGSPHSRRQNQQT | 2.166 fold | –
KPRLGSGSPHSKAQNQQT | 2.406 fold | –
KTINGSGSPHLVCQNQQT | 2.493 fold | –
KTINGSGSPHSKLCLQQT | 2.562 fold | –
KTINGSGSPHSKLRMQQT | 2.106 fold | –
KTINGSGSPHSKARLTQT | 2.223 fold | –

Sequence | Fold enrichment over TTM-001 (brain [4]) | also measured
KTINGSGSPHSHWQNQQT | 2.676 fold | –
KTINGSGSPHIYRQNQQT | 2.782 fold | –
KTINGSGSPHSKPRLQQT | 3.337 fold | –
KTINGSGSPHSKAQSSKT | 2.078 fold | –
KTINGRSSPHPKAQNQQT | 2.596 fold | –
KTINGSGSPHSKAQFWVT | 2.050 fold | –
KTINGSGSPHSKANRMQT | 2.508 fold | –
KTINGRPSPHSKAQNQQT | 2.276 fold | –
KTINGSGSPHSKTRMQQT | 2.011 fold | –
KWSPGSGSPHSKAQNQQT (peptide inserted in AAV capsid) | 2.764 fold | –
KTINFLRSPHSKAQNQQT | 3.331 fold | –
KTINGSRSPHRSAQNQQT (peptide inserted in AAV capsid) | 2.536 fold | –
KTINGSGSPHSKAQNYRA | 2.039 fold | –
KTINGSGSPHSKAQLPWT | 2.169 fold | –
KTINGSGSPHSKAQLYRT | 4.108 fold | –
KTINGSGSPHSLRSNQQT | 2.778 fold | –
KTINGSGSPHSMYLNQQT | 2.000 fold | –
KTINGSGSPHSKAQWSVT | 2.501 fold | –
KTINRHSSPHSKAQNQQT | 2.877 fold | –
KTINGSGSPHSRRSNQQT | 2.851 fold | –
KTINGSGSPHSKARMQQT | 2.184 fold | –
KTINGSGSPHSKAQYYVT | 6.283 fold | –
KTINGSGSPHLTWQNQQT | 2.637 fold | –
KTINGSGSPHSKSLKQQT | 2.013 fold | –
KTINGKLSPHMKAQNQQT | 2.449 fold | –
KTINGSGSPHSRVRNQQT | 2.540 fold | –
KTINGSGSPHSSKRNQQT | 2.978 fold | –

Sequence | Fold enrichment over TTM-001 (brain [4]) | also measured
KTINGSGSPHSKAQAFRT | 2.022 fold | –
KGLSGSGSPHSKAQNQQT | 4.056 fold | –
KTINGSGSPHSKARPFQT | 2.443 fold | –
KTINGSGSPHSKALKRQT | 2.836 fold | –
KTINGSGSPHSKRVPQQT | 3.048 fold | –
KTINGSGSPHSKAQWLRT | 2.795 fold | –
KTINGSGSPHSKANKSQT | 2.056 fold | –
KTINGSGSPHSKAQCYVT | 2.261 fold | –
KTINGSGSPHSKSERQQT | 2.263 fold | –
KTINGRKSPHSKAQNQQT | 2.985 fold | –
KTINGSGSPHSKRAMQQT | 3.801 fold | –
KTINGSGSPHSKAQNSRR | 3.168 fold | –
KTWVRSGSPHSKAQNQQT | 2.186 fold | –
KTINGSLSPHLFAQNQQT | 2.285 fold | –
KTINGSGSPHYLLQNQQT | 2.011 fold | –
KTINGSGSPHSKTSRQQT | 2.132 fold | –
KTINGSGSPHSFLLNQQT | 2.341 fold | –
KTINGIASPHRKAQNQQT | 2.099 fold | –
KTINGSGSPHSLYLNQQT | 3.264 fold | –
KTINGSGSPHSKWLLQQT | 4.521 fold | –
KTINGSGSPHSKTNRQQT | 2.169 fold | –
KTINGSGSPHSKRLRQQT | 5.034 fold | –
KTINGMRSPHVKAQNQQT | 2.937 fold | –
KTSRCSGSPHSKAQNQQT | 2.345 fold | –
KTINGLASPHRKAQNQQT | 2.737 fold | –
KTLRRSGSPHSKAQNQQT | 2.117 fold | –
